The results in this text go back to US12295936B2, “Immunomodulating urea azalides” (Zoetis Services LLC, priority 2020, dated 2025).

A short description of data set [1]: pH dependent aqueous solubility. The data set is classed as physicochemical. On the procedure:
In an aqueous solution, Example H-11 exists as an equilibrated mixture of two lactone isomers as shown above. The ratio is approximately 9:1 lactone A:B. The rate of equilibration depends on pH and temperature, with neutral pH giving faster equilibration, pH˜5-6 giving much slower equilibration, and higher temperatures resulting in faster equilibration. Equilibration occurs in under 1-hour at pH>6 and temperatures >60° C. H-11 isomerization is a 6 exo-Trig cyclization and is a favored reaction by Baldwin's Rules. The dominant isomer, lactone-A, is a 15-membered macrocyclic lactone, while the minor isomer, lactone-B, is a 13-membered macrocyclic lactone. […] Due to the pH dependent solubility of H-11, and other compounds of the invention, dissolution of an organic acid (e.g., citric acid) into water prior to adding the active agent (e.g., H-11) may be necessary to ensure complete dissolution, particularly for higher concentration solutions, thereby providing a solution with enough buffering capacity for dissolution.

The nature of data set [2]: Lactone A / lactone B equilibration in aqueous solution. The data set is classed as physicochemical. The following applies: pH>6 and temperatures >60° C. On the procedure:
The H-11 lactones were separated by HPLC using an Agilent 1100 quaternary pump and diode array detector (250 nm) with an X-select CSH C18 column (150×4.6 mm, 2.5 μm) at 50° C. using a gradient mobile phase (mp) comprising 0.03% H2SO4 in water (mpA) and acetonitrile (mpB) over 16 minutes. Lactone A eluted at 5.8 minutes (area % 92.4) and lactone B eluted at 5.2 minutes (area % 7.6).
In an aqueous solution, Example H-11 exists as an equilibrated mixture of two lactone isomers as shown above. The ratio is approximately 9:1 lactone A:B. The rate of equilibration depends on pH and temperature, with neutral pH giving faster equilibration, pH˜5-6 giving much slower equilibration, and higher temperatures resulting in faster equilibration. Equilibration occurs in under 1-hour at pH>6 and temperatures >60° C. H-11 isomerization is a 6 exo-Trig cyclization and is a favored reaction by Baldwin's Rules. The dominant isomer, lactone-A, is a 15-membered macrocyclic lactone, while the minor isomer, lactone-B, is a 13-membered macrocyclic lactone. […]

Data set [3] can be described thus: in vivo. The following applies: Holstein, bovine, plasma, subcutaneous, 2.5 mg/kg.
Procedure: (§3) The primary clinical endpoint for efficacy was treatment failure/success over a 14-day observation period. Clinically normal beef calves (150-200 kg) at moderate risk for BRD were dosed on arrival to the feedlot. Animals (N=114/group) received saline (T01), 5 mg/kg M9 (T02), 10 mg/kg M9 (T03) or Zactran (T04).
In data set [4] the target is LCN2 (Bos taurus, UniProt A0AAA9TIZ6). Briefly: Surface plasmon resonance (SPR) drug/target affinity. The following applies: biologically relevant pH. The data set is classed as binding. An excerpt: (§1) In order to add further clarity to binding partner identification, surface plasma resonance (SPR) technology was used. […] These targets were unique to this drug class compared to gamithromycin, a macrolide antibiotic used in the treatment of BRD. Both targets fit the paradigm that the immunological mechanism of action is linked to the pathways that are both of key importance as being dysregulated in BRD and modulated by M9. LCN2 is expressed by neutrophils upon activation of toll-like receptors (TLRs) and is a component of the innate inflammatory response. […] Very little information exists to date on SLAMF9. It is a member of a family of signal adaptor proteins that is thought to lack signal transduction capabilities.
Chain of LCN2 (A0AAA9TIZ6 entry or part of it): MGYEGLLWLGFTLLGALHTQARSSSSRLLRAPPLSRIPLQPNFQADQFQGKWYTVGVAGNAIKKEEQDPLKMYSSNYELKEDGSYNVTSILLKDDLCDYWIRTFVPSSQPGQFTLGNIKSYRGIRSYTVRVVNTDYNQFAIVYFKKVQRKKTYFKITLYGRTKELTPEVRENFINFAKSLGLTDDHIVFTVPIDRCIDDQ
(§2) KD is the equilibrium dissociation constant that was used to present the drug/target affinity. The identified targets associated with drug were measured by surface plasmon resonance (SPR) to define the KD.

The target of data set [5] is LPO (Bos taurus, UniProt P80025). Described as above. The data set is classed as binding.
From the text: as §1, §2

For data set [6], the target named is NLRX1. The data set is described as above. The data set is classed as binding.
From the text: as §1, §2

Data set [7] concerns the target SLAMF9 (Bos taurus, UniProt E1BNF9). The description is as above. The data set is classed as binding. The following applies: biologically relevant pH.
From the text: as §1, §2

Data set [8] deals with TLR4. The description is as above. The data set is classed as binding.
From the text: as §1, §2

The nature of data set [9]: Plasma pharmacokinetics in cattle. The following applies: following a 10 mg/kg dose, separate PK study.
Procedure: as §3
Data set [10] has as its system E. coli. Briefly: In-vitro MIC model (CLSI broth micro-dilution). The following applies: Escherichia coli, ATCC25922, read-out: Comparative MIC's, E. coli ATCC 25922.

Chain of SLAMF9 (E1BNF9 entry or part of it): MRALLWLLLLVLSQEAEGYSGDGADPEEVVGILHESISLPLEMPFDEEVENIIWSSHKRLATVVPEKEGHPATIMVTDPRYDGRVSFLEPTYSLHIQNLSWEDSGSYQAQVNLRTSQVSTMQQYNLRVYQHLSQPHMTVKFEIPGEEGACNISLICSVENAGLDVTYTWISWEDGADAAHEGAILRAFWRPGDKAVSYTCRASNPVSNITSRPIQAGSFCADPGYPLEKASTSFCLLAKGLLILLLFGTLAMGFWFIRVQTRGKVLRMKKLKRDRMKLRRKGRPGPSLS

With `CCCNC[C@]1(O)[C@H](C)O[C@@H](O[C@H]2[C@H](C)[C@@H](O[C@@H]3O[C@H](C)C[C@H](N(C)C(=O)N(C)c4ccccc4)[C@H]3O)[C@](C)(O)C[C@@H](C)CN[C@H](C)[C@@H](O)[C@](C)(O)[C@@H](CC)OC(=O)[C@@H]2C)C[C@@]1(C)OC` [Example H-11, 1-((2S,3R,4S,6R)-2-(((2R,3S,4R,5R,8R,10R,11R,12S,13S,14R)-2-ethyl-3,4,10-trihydroxy-13-(((2R,4R,5S,6S)-5-hydroxy-4-methoxy-4,6-dimethyl-5-((propylamino)methyl)tetrahydro-2H-pyran-2-yl)oxy)-3,5,8,10,12,14-hexamethyl-15-oxo-1-oxa-6-azacyclopentadecan-11-yl)oxy)-3-hydroxy-6-methyltetrahydro-2H-pyran-4-yl)-1,3-dimethyl-3-phenylurea], the aqueous solubility result is given as “very soluble” in data set [1] (acidic pH) and “lower solubility” in [1] (as the pH approaches neutral conditions). Further, the “time to equilibration of the lactone isomers” value in data set [2] is reported as “under 1 hour”.

In the case of `CCCNC[C@]1(O)[C@H](C)O[C@@H](O[C@H]2[C@H](C)[C@@H](O[C@@H]3O[C@H](C)C[C@H](N(C)C(=O)Nc4ccccc4)[C@H]3O)[C@](C)(O)C[C@@H](C)CN[C@H](C)[C@@H](O)[C@](C)(O)[C@@H](CC)OC(=O)[C@@H]2C)C[C@@]1(C)OC` [Example H-91, 1-((2S,3R,4S,6R)-2-(((2R,3S,4R,5R,8R,10R,11R,12S,13S,14R)-2-ethyl-3,4,10-trihydroxy-13-(((2R,4R,5S,6S)-5-hydroxy-4-methoxy-4,6-dimethyl-5-((propylamino)methyl)tetrahydro-2H-pyran-2-yl)oxy)-3,5,8,10,12,14-hexamethyl-15-oxo-1-oxa-6-azacyclopentadecan-11-yl)oxy)-3-hydroxy-6-methyltetrahydro-2H-pyran-4-yl)-1-methyl-3-phenylurea], the maximum concentration (Cmax) in data set [3] is 152 ng/mL.

With `CCCNC[C@]1(O)[C@H](C)O[C@@H](O[C@H]2[C@H](C)[C@@H](O[C@@H]3O[C@H](C)C[C@H](NC)[C@H]3O)[C@](C)(O)C[C@@H](C)CN[C@H](C)[C@@H](O)[C@](C)(O)[C@@H](CC)OC(=O)[C@@H]2C)C[C@@]1(C)OC` [Example M9, (2R,3S,4R,5R,8R,10R,11R,12S,13S,14R)-2-ethyl-3,4,10-trihydroxy-13-(((2R,4R,5S,6S)-5-hydroxy-4-methoxy-4,6-dimethyl-5-((propylamino)methyl)-tetrahydro-2H-pyran-2-yl)oxy)-11-(((2S,3R,4S,6R)-3-hydroxy-6-methyl-4-(methylamino)tetrahydro-2H-pyran-2-yl)oxy)-3,5,8,10,12,14-hexamethyl-1-oxa-6-azacyclopentadecan-15-one, reference compound], the “drug/target binding, LCN2” value in data set [4] is reported as “direct binding targets”. The Interaction type result in data set [5] was “Indirect”. The “drug/target binding, NLRX1” value in [6] is given as “Indirect”. The “drug/target binding, SLAMF9” value in data set [7] is reported as “direct binding targets”. Moreover, the “Interaction KD (M)” value in data set [8] is “Indirect”. Further, the maximum plasma concentration in data set [9] amounted to 5 µg/mL. Also, in data set [10], the minimal inhibitory concentration (MIC) was over 64 µg/mL.
